Assay results as given in patent publication US12502434B2, “Compound comprising EZH2 inhibitor and E3 ligase binder and pharmaceutical composition for preventing or treating EZH2-associated disease comprising same as active ingredient” (DAEGU-GYEONGBUK MEDICAL INNOVATION FOUNDATION, priority 2019, dated 2025).
Where two headings read alike, the source gives them in different places.

Tests used:
[1] = biological target: T1, HiBiT-EZH2 in EZH2-HiBiT HEK293T cells (Homo sapiens, UniProt Q15910); experiment: EZH2 proteolytic activity using Nano-BiT assay system; format: cell-based; settings: for Relative EZH2 degradation rate, 1 μM(%) Average: 72 hours, n = 3; for EZH2 proteolytic ability compared to comparative compounds 1, 2 and 3 (in words): 1 μM
T1 construct: endogenous in cells; host or cells: HEK293T (CRISPR/Cas9 HiBiT knock-in at the EZH2 locus)
T1 sequence (Q15910 whole entry): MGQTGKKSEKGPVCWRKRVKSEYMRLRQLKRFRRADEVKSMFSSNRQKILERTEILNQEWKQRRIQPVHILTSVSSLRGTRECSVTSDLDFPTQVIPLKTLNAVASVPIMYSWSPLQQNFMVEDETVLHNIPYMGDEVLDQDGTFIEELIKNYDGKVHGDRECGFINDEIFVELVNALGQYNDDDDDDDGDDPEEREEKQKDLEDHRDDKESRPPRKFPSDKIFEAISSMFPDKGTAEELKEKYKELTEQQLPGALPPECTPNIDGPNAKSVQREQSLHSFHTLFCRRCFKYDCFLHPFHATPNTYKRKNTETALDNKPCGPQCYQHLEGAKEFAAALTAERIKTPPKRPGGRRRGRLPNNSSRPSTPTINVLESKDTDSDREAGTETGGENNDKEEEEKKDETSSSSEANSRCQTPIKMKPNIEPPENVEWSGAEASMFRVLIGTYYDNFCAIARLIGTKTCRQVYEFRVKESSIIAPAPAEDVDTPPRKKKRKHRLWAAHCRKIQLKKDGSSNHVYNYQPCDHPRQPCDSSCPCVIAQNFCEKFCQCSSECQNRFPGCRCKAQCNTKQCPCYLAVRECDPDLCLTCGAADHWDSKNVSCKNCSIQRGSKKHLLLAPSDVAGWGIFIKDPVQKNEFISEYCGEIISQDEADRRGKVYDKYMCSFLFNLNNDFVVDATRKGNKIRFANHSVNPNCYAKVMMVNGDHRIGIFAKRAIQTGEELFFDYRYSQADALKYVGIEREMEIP
T1 sequence (O75530 whole entry partner): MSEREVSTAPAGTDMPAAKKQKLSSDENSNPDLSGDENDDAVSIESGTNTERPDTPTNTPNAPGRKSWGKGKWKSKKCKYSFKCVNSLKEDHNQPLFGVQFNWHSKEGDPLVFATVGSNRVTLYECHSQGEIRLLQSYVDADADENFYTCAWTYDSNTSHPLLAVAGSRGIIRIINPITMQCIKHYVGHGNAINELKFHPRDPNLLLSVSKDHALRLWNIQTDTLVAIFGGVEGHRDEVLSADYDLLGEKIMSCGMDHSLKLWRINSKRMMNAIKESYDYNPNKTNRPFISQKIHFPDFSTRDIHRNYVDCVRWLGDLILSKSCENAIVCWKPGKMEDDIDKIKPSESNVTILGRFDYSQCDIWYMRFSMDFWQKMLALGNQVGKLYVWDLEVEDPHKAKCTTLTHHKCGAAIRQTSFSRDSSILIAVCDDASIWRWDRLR
T1 sequence (Q15022 whole entry partner): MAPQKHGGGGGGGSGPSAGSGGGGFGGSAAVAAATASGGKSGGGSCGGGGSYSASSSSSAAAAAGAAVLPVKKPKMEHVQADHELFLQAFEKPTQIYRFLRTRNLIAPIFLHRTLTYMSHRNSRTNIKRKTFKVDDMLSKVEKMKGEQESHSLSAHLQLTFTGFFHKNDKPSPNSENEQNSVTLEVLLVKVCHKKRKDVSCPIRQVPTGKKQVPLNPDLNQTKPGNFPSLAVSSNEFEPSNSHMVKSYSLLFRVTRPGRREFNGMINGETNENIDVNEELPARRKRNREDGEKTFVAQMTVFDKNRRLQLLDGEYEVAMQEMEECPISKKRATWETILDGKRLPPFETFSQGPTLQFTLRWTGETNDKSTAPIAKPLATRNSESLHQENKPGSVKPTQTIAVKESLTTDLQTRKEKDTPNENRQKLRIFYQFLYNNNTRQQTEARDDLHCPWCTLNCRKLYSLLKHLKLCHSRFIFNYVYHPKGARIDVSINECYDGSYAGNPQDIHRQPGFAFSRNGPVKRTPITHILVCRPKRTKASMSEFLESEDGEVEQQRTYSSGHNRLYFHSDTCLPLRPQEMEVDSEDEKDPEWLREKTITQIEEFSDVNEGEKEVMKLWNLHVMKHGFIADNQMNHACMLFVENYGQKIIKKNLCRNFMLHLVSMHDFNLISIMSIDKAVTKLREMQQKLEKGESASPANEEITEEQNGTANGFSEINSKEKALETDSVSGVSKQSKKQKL
Description: In order to evaluate the EZH2 proteolytic activity of the compound according to the present invention, the following experiment was performed. Specifically, the CRISPR/Cas9 technique was used to construct a stable cell line of HiBiT-EZH2. […] After harvesting the cells, the cell solution was prepared at a concentration of 1 cell/100 ul, and 100 ul of the cell solution was dispensed into each well of a 96-well plate and seeded so that a single cell could proliferate in each well. After proliferating the cells for 2-3 weeks, some of the proliferated cells from one cell were recovered and gDNA was extracted. To confirm that the HiBiT sequence was correctly inserted into the EZH2 target, deep sequencing was performed to select the cells containing the HiBiT sequence, and after further verification through Sanger sequencing, the final EZH2-HiBiT HEK293T cells were obtained. 1×10^3 of the obtained cells were placed in a 96-well white plate, and after 18 hours of stabilization, each well was treated with the example compound at a final concentration of 1 μM. The control group was treated with the same concentration of DMSO which was used as the solvent of the example compound. After 72 hours of the treatment, an assay was performed using Nano-Glo HiBiT Lytic Detection System ([…], Promega). After removing the medium, 100 μL of lysis buffer, 1 μL of LgBiT protein and 1 μL of substrate buffer were added to each well. Then, the plate was reacted in a shaking incubator at 700 rpm for 2 minutes, and then the mixture of each well was pipetted to mix well. Thereafter, the plate was reacted at room temperature for 10 minutes while light was blocked, and luminescence was measured.

[2] = biological target: T2, EZH2 protein in LS174T cells (Homo sapiens, UniProt Q15910); experiment: Proteolytic effect in colorectal cancer cells (Western blotting); format: cell-based
T2 construct: endogenous in cells; host or cells: LS174T
T2 sequence (Q15910 whole entry): as the sequence (Q15910 whole entry) above
T2 sequence (O75530 whole entry partner): as the sequence (O75530 whole entry partner) above
T2 sequence (Q15022 whole entry partner): as the sequence (Q15022 whole entry partner) above
Description: After 72 hours of the treatment, the cells were collected and lysed using RIPA buffer (50 mM Tris, pH 7.5, 150 mM NaCl, 1% Triton X-100, 0.1% SDS, […], 0.5% deoxycholate, and protease inhibitor cocktail), followed by sonication (30 sec on/30 sec off, 5 cycles) to prepare a cell lysate.

[3] = EZH2 protein, LS174T cells, 1 μM, 72 hours
[4] = EZH2 protein, LS174T cells, 1 uM, 72 hours, Western blotting

SMILES | Relative EZH2 degradation rate, 1 μM(%) Average [1] | Grade (percent value of the protein degradation when treated with 1 μM) [2, 3] | %, degradation at 1 uM [2, 4] | EZH2 proteolytic ability compared to comparative compounds 1, 2 and 3 (in words) [1] | other results
CCN(c1cc(-c2ccc(CN3CCN(CC(=O)N4CCC5(CCN(CCNc6cccc7c6C(=O)N(C6CCC(=O)NC6=O)C7=O)CC5)CC4)CC3)cc2)cc(C(=O)NCc2c(C)cc(C)[nH]c2=O)c1C)C1CCOCC1 (stereo not drawn) [Example 30, N-((4,6-dimethyl-2-oxo-1,2-dihydropyridine-3-yl)methyl)-4′-((4-(2-(9-(2-((2-(2,6-dioxopiperidine-3-yl)-1,3-dioxoisoindoline-4-yl)amino)ethyl)-3,9-diazaspiro[5.5]undecane-3-yl)-2-oxoethyl)piperazine-1-yl)methyl)-5-(ethyl(tetrahydro-2H-pyran-4-yl)amino)-4-methyl-[1,1′-biphenyl]-3-carboxamide] | 50.7% | A (>75%) | 95.65% | significantly better EZH2 proteolytic ability | EZH2 proteolytic effect by Western blotting (figure, in words) ([2]; FIGS. 1 to 5): confirming the EZH2 proteolytic effect; effect of degrading EZH2 protein when treated to colorectal cancer cells (in words) ([2]; LS174T cells): excellent effects
CCN(c1cc(-c2ccc(CN3CCN(CC(=O)NCCCCCCOCC(=O)N[C@H](C(=O)N4C[C@H](O)C[C@H]4C(=O)NCc4ccc(-c5scnc5C)cc4)C(C)(C)C)CC3)cc2)cc(C(=O)NCc2c(C)cc(C)[nH]c2=O)c1C)C1CCOCC1 [Example 46, (2S,4R)-1-((S)-2-(2-((6-(2-(4-((3′-(((4,6-dimethyl-2-oxo-1,2-dihydropyridine-3-yl)methyl)carbamoyl)-5′-(ethyl(tetrahydro-2H-pyran-4-yl)amino)-4′-methyl-[1,1′-biphenyl]-4-yl)methyl)piperazine-1-yl)acetamido)hexyl)oxy)acetamido)-3,3-dimethylbutanoyl)-4-hydroxy-N-(4-(4-methylthiazole-5-yl)benzyl)pyrrolidine-2-carboxamide] | 65.8% |  |  | significantly better EZH2 proteolytic ability | %, degradation at 1 uM [2]: 83.76%; EZH2 proteolytic effect by Western blotting (figure, in words) [2]: confirming the EZH2 proteolytic effect; Grade (percent value of the protein degradation when treated with 1 μM) [2]: A (key: A: >75%; B: 50-75%; C: 25-50%; D: <25%)
CCN(c1cc(-c2ccc(CN3CCN(CCNC(=O)CCOCCNc4cccc5c4C(=O)N(C4CCC(=O)NC4=O)C5=O)CC3)cc2)cc(C(=O)NCc2c(C)cc(C)[nH]c2=O)c1C)C1CCOCC1 (stereo not drawn) [compound 3, reference compound] | 19.2% |  |  |  | 
CCN(c1cc(-c2ccc(CN3CCN(CC(=O)NCCCCCCCCCOCC(=O)N[C@H](C(=O)N4C[C@H](O)C[C@H]4C(=O)NCc4ccc(-c5scnc5C)cc4)C(C)(C)C)CC3)cc2)cc(C(=O)NCc2c(C)cc(C)[nH]c2=O)c1C)C1CCOCC1 [Example 49, (2S,4R)-1-((S)-2-(2-((9-(2-(4-((3′-(((4,6-dimethyl-2-oxo-1,2-dihydropyridine-3-yl)methyl)carbamoyl)-5′-(ethyl(tetrahydro-2H-pyran-4-yl)amino)-4′-methyl-[1,1′-biphenyl]-4-yl)methyl)piperazine-1-yl)acetamido)nonyl)oxy)acetamido)-3,3-dimethylbutanoyl)-4-hydroxy-N-(4-(4-methylthiazole-5-yl)benzyl)pyrrolidine-2-carboxamide] | 77.8% | A (>75%) | 96.49% | significantly better EZH2 proteolytic ability | EZH2 proteolytic effect by Western blotting (figure, in words) ([2]; FIGS. 1 to 5): confirming the EZH2 proteolytic effect; effect of degrading EZH2 protein when treated to colorectal cancer cells (in words) ([2]; LS174T cells): excellent effects
CCN(c1cc(-c2ccc(CN3CCN(CC(=O)NCCN4CCN(CCNc5cccc6c5C(=O)N(C5CCC(=O)NC5=O)C6=O)CC4)CC3)cc2)cc(C(=O)NCc2c(C)cc(C)[nH]c2=O)c1C)C1CCOCC1 (stereo not drawn) [Example 29, N-((4,6-dimethyl-2-oxo-1,2-dihydropyridine-3-yl)methyl)-4′-((4-(2-((2-(4-(2-((2-(2,6-dioxopiperidine-3-yl)-1,3-dioxoisoindoline-4-yl)amino)ethyl)piperazine-1-yl)ethyl)amino)-2-oxoethyl)piperazine-1-yl)methyl)-5-(ethyl(tetrahydro-2H-pyran-4-yl)amino)-4-methyl-[1,1′-biphenyl]-3-carboxamide] |  | D (<25%) | 0% |  | 
CCN(c1cc(-c2ccc(CN3CCN(CC(=O)NCCCCOc4cccc5c4C(=O)N(C4CCC(=O)NC4=O)C5=O)CC3)cc2)cc(C(=O)NCc2c(C)cc(C)[nH]c2=O)c1C)C1CCOCC1 (stereo not drawn) [Example 7, N-((4,6-dimethyl-2-oxo-1,2-dihydropyridine-3-yl)methyl)-4′-((4-(2-((4-((2-(2,6-dioxopiperidine-3-yl)-1,3-dioxoisoindoline-4-yl)oxy)butyl)amino)-2-oxoethyl)piperazine-1-yl)methyl)-5-(ethyl(tetrahydro-2H-pyran-4-yl)amino)-4-methyl-[1,1′-biphenyl]-3-carboxamide] |  |  |  |  | %, degradation at 1 uM [2]: 22.74%; Grade (percent value of the protein degradation when treated with 1 μM) [2]: D (key: A: >75%; B: 50-75%; C: 25-50%; D: <25%)
CCN(c1cc(-c2ccc(CN3CCN(CC(=O)NCCCOCCNc4cccc5c4C(=O)N(C4CCC(=O)NC4=O)C5=O)CC3)cc2)cc(C(=O)NCc2c(C)cc(C)[nH]c2=O)c1C)C1CCOCC1 (stereo not drawn) [Example 15, N-((4,6-dimethyl-2-oxo-1,2-dihydropyridine-3-yl)methyl)-4′-((4-(2-((3-(2-((2-(2,6-dioxopiperidine-3-yl)-1,3-dioxoisoindoline-4-yl)amino)ethoxy)propyl)amino)-2-oxoethyl)piperazine-1-yl)methyl)-5-(ethyl(tetrahydro-2H-pyran-4-yl)amino)-4-methyl-[1,1′-biphenyl]-3-carboxamide] |  | D (<25%) | 0% |  | 

More lines, main results first:

Relative EZH2 degradation rate, 1 μM(%) Average [1] | Grade (percent value of the protein degradation when treated with 1 μM) [2, 3] | %, degradation at 1 uM [2, 4] | SMILES | EZH2 proteolytic ability compared to comparative compounds 1, 2 and 3 (in words) [1] | other results
27.8% |  |  | CCN(c1cc(-c2ccc(OCC(=O)NCCCCCCNc3cccc4c3C(=O)N(C3CCC(=O)NC3=O)C4=O)cc2)cc(C(=O)NCc2c(C)cc(C)[nH]c2=O)c1C)C1CCOCC1 (stereo not drawn) [compound 1, reference compound] |  | 
16.2% |  |  | CCN(c1cc(-c2ccc(N3CCN(CC(=O)NCCCCCCNc4cccc5c4C(=O)N(C4CCC(=O)NC4=O)C5=O)CC3)cc2)cc(C(=O)NCc2c(C)cc(C)[nH]c2=O)c1C)C1CCOCC1 (stereo not drawn) [compound 2, reference compound] |  | 
62.9% | A (>75%) | 92.73% | CCN(c1cc(-c2ccc(CN3CCN(CC(=O)NCCCCCOCCCOCC(=O)N[C@H](C(=O)N4C[C@H](O)C[C@H]4C(=O)NCc4ccc(-c5scnc5C)cc4)C(C)(C)C)CC3)cc2)cc(C(=O)NCc2c(C)cc(C)[nH]c2=O)c1C)C1CCOCC1 [Example 37, (2S,4R)-1-((S)-2-(tert-butyl)-18-(4-((3′-(((4,6-dimethyl-2-oxo-1,2-dihydropyridine-3-yl)methyl)carbamoyl)-5′-(ethyl(tetrahydro-2H-pyran-4-yl)amino)-4′-methyl-[1,1′-biphenyl]-4-yl)methyl)piperazine-1-yl)-4,17-dioxo-6,10-dioxa-3,16-diazaoctadecanoyl)-4-hydroxy-N-(4-(4-methylthiazole-5-yl)benzyl)pyrrolidine-2-carboxamide] | significantly better EZH2 proteolytic ability | effect of degrading EZH2 protein when treated to colorectal cancer cells (in words) ([2]; LS174T cells): excellent effects
 | D (<25%) | 0% | CCN(c1cc(-c2ccc(CN3CCN(C(=O)c4cn(CCC(=O)N[C@H](C(=O)N5C[C@H](O)C[C@H]5C(=O)NCc5ccc(-c6scnc6C)cc5)C(C)(C)C)nn4)CC3)cc2)cc(C(=O)NCc2c(C)cc(C)[nH]c2=O)c1C)C1CCOCC1 [Example 47, (2S,4R)-1-((S)-2-(3-(4-(4-((3′-(((4,6-dimethyl-2-oxo-1,2-dihydropyridine-3-yl)methyl)carbamoyl)-5′-(ethyl(tetrahydro-2H-pyran-4-yl)amino)-4′-methyl-[1,1′-biphenyl]-4-yl)methyl)piperazine-1-carbonyl)-1H-1,2,3-triazole-1-yl)propanamido)-3,3-dimethylbutanoyl)-4-hydroxy-N-(4-(4-methylthiazole-5-yl)benzyl)pyrrolidine-2-carboxamide] |  | 
